Test system: HT-29 cells
Assay: HT29 cells 0FBS assay in vitro: TNF-α/SMAC mimetic/zVAD-FMK induced necroptosis, CellTiter-Glo cell viability (RIP1 inhibitory activity)
Type: cell-based
Details: Homo sapiens, FBS free medium, TNF-α (10 ng/ml) + SMAC mimetic (6 uM) + zVAD-FMK (10 μM), 20 hours, geometric mean EC50
Excerpt: Protocol for HT29 Cells 0FBS Assay In Vitro
• Cell line: HT-29 (ATCC® HTB-38™) • Culture medium: McCOY's 5A, Gibco, Cat No. 16600-082 • FBS, Gibco, Cat No. 10099-141C • Trypsin: Gibco, Cat No. 25200-056 • DMSO: Sigma, Cat No. 67-68-5, 1L • Assay plate: Corning #3903 • Compound dilution plate: Corning #3357 • Inducers: TNFα, GenScript, Cat No. Z01001-50, • SmacM, Cat. No., HY-15989, MedChemExpress (MCE) • Z_VAD FMK, TargetMol, T6013 • Cell Titer-Glo® Luminescent Cell Viability Assay Kit: Promega, Cat No. G7573 • EnVision: PerkinElmer, 2105-0010
2. Cell Seeding of HT-29 Cells
1) HT-29 cells were checked every day to make sure they are healthy and growing as expected. They were split sub-culturing when were approximately 80% confluent.
2) First pre-warm the culture medium of McCOY's 5A medium (Gibco, Cat No. 16600-082) with 10% FBS (Gibco, Cat No. 10099-141C) in 37° C. water bath for at least 30 min.
3) Growing cells to desired level of confluency 80% in a T75 flask, aspirate the medium, and wash with warm PBS two times.
4) Add 2-3 ml fresh warm trypsin (Gibco, Cat No. 25200-056) solution. Transfer the flask to a 37° C. incubator.
5) After 5 minutes, tap the side of the flask, and examine the flask under a microscope for lifting. If necessary, return the cells to the incubator for an additional 5-10 minutes, with occasional tapping, until lifting is complete.
6) Quickly neutralize the trypsin reaction by adding 6-9 ml cell culture medium, then transfer the cells to sterile 15 ml conical tubes. Pellet the cells by centrifugation at 300×g for 7 minutes, then decant the supernatant.
7) Resuspend the cells in fresh cell culture medium. Do cell counting with hemocytometer.
8) Seed 100 μl of 5,000 cells into each well of the sterile 96-well cell culture plate (Corning 3903) and culture overnight at 37° C. with 5% CO2.
3. Compounds Titration and Treatment of HT-29 Cells
1) All batches of compounds (CPDs0 (e.g., compound 1-169) were dissolved in DMSO (Dimethyl sulfoxide) as 20 mM stock solution.
2) Take 3 ul 20 mM stock solution of CPDs to […] DMSO and mix well, continue the titration ratio of 1:3 (20 ul CPDs+40 ul DMSO), e.g., to give solutions of CPDS at 6.6 mM, 2.2 mM, etc., till the 10 points end.
3) Take out assay plates with HT-29 cells from incubator, remove all culture medium then wash 1 time with 1×PBS, and change fresh McCOY's 5A medium of FBS free with a cocktail of TNF-α (10 ng/ml), the SMAC mimetic (6 uM) and zVAD-FMK (10 μM) to stimulate the HT-29 cells to increase pRIPK1 levels and necroptosis.
4) Add 0.5 μL of the diluted compound to the corresponding 96-well assay plates.
5) Incubate the assay plates for 20 hours at 37° C. with 5% CO2.
4. Performing Cell Viability Detection of HT-29 Cells after Treated with Compounds
1) The CellTiter-Glo® Luminescent Cell Viability Assay was employed to detect the ATP levels of viable HT-29 cells.
2) Equilibrate the CellTiter-Glo® buffer and the lyophilized substrate to room temperature prior to use.
3) Resuspend the CellTiter-Glo® substrate with CellTiter-Glo® buffer, mix by gently vortexing to obtain a homogeneous solution.
4) Pipette 20 μl the enzyme/substrate mixture by multi-channel pipette into the 96-well assay plates from step 5) under the Compounds titration and treatment stage.
5) Place the plates on an orbital shaker and mix the contents for 3 minutes to induce cell lysis.
6) Then allow the plates to incubate at room temperature for 10 minutes to stabilize luminescent signal.
7) Read and record luminescence signal with EnVision.
8) The geometric mean EC50 of the compounds were calculated from 10 points response dose with duplicate. In Table 2, activity is provided as follows: +++=0.1 nM≤EC50<100 nM; ++=100 nM≤EC5 1000 nM; […].

Compound | EC50 [nM]
Cn1ncc(C(N)=O)c1-c1cc(OC2CN(C(=O)N3N=CC[C@H]3c3cc(F)cc(C#N)c3)C2)c(F)cn1 [Compound 10, (S)-5-(4-((1-(5-(3-cyano-5-fluorophenyl)-4,5-dihydro-1H-pyrazole-1-carbonyl)azetidin-3-yl)oxy)-5-fluoropyridin-2-yl)-1-methyl-1H-pyrazole-4-carboxamide] | 100 to 1000
CNC(=O)c1c(C)nn(-c2cc(OC3CN(C(=O)N4N=CC[C@H]4c4cc(F)cc(C#N)c4)C3)c(F)cn2)c1C [Compound 80, (S)-1-(4-((1-(5-(3-cyano-5-fluorophenyl)-4,5-dihydro-1H-pyrazole-1-carbonyl)azetidin-3-yl)oxy)-5-fluoropyridin-2-yl)-N,3,5-trimethyl-1H-pyrazole-4-carboxamide] | 0.1 to 100
Cc1nn(-c2cc(OC3CN(C(=O)N4N=CC[C@H]4c4cccc(F)c4)C3)c(F)cn2)c(C)c1C(=O)O [Compound 82, (S)-1-(5-fluoro-4-((1-(5-(3-fluorophenyl)-4,5-dihydro-1H-pyrazole-1-carbonyl)azetidin-3-yl)oxy)pyridin-2-yl)-3,5-dimethyl-1H-pyrazole-4-carb oxylic acid] | 0.1 to 100
Cc1cnn(C)c1-c1ncc(F)c(OC2CN(C(=O)N3N=CC[C@H]3c3cncc(F)c3)C2)n1 [Compound 24, (S)-(3-((2-(1,4-dimethyl-1H-pyrazol-5-yl)-5-fluoropyrimidin-4-yl)oxy)azetidin-1-yl)(5-(5-fluoropyridin-3-yl)-4,5-dihydro-1H-pyrazol-1-yl)methanone] | 0.1 to 100
Cc1ncc(C2CC=NN2C(=O)N2CC(Oc3nc(-c4c(C)cnn4C)ncc3F)C2)s1 (centres unmarked) [Compound 109, (3-((2-(1,4-dimethyl-1H-pyrazol-5-yl)-5-fluoropyrimidin-4-yl)oxy)azetidin-1-yl)(5-(2-methylthiazol-5-yl)-4,5-dihydro-1H-pyrazol-1-yl)methanone] | 0.1 to 100
Cc1ncsc1-c1cc(OC2CN(C(=O)N3N=CC[C@H]3c3cncc(F)c3)C2)c(F)cn1 [Compound 64, (S)-(3-((5-fluoro-2-(4-methylthiazol-5-yl)pyridin-4-yl)oxy)azetidin-1-yl)(5-(5-fluoropyridin-3-yl)-4,5-dihydro-1H-pyrazol-1-yl)methanone] | 0.1 to 100
Cc1cnn(C)c1-c1ccc(F)c(OC2CN(C(=O)N3N=CC[C@H]3c3cc(F)cc(C#N)c3)C2)n1 [Compound 53, (S)-3-(1-(3-((6-(1,4-dimethyl-1H-pyrazol-5-yl)-3-fluoropyridin-2-yl)oxy)azetidine-1-carbonyl)-4,5-dihydro-1H-pyrazol-5-yl)-5-fluorobenzonitrile] | 0.1 to 100
Cc1nn(-c2cc(OC3CN(C(=O)N4N=CC[C@H]4c4ccccc4)C3)c(F)cn2)c(C)c1C(N)=O [Compound 71, (S)-1-(5-fluoro-4-((1-(5-phenyl-4,5-dihydro-1H-pyrazole-1-carbonyl)azetidin-3-yl)oxy)pyridin-2-yl)-3,5-dimethyl-1H-pyrazole-4-carboxamide] | 0.1 to 100
Cc1cncc(C2CC=NN2C(=O)N2CC(Oc3cc(-c4c(C)cnn4C)ncc3F)C2)c1 (centres unmarked) [Compound 101, (3-((2-(1,4-dimethyl-1H-pyrazol-5-yl)-5-fluoropyridin-4-yl)oxy)azetidin-1-yl)(5-(5-methylpyridin-3-yl)-4,5-dihydro-1H-pyrazol-1-yl)methanone] | 0.1 to 100
Cc1ncc(C2CC=NN2C(=O)N2CC(Oc3nc(-c4c(C)cnn4C)c(F)cc3F)C2)s1 (centres unmarked) [Compound 123, (3-((6-(1,4-dimethyl-1H-pyrazol-5-yl)-3,5-difluoropyridin-2-yl)oxy)azetidin-1-yl)(5-(2-methylthiazol-5-yl)-4,5-dihydro-1H-pyrazol-1-yl)methanone] | 0.1 to 100
Cn1ncc(C#N)c1-c1cc(OC2CN(C(=O)N3N=CC[C@H]3c3cc(F)cc(C#N)c3)C2)c(F)cn1 [Compound 9, (S)-5-(4-((1-(5-(3-cyano-5-fluorophenyl)-4,5-dihydro-1H-pyrazole-1-carbonyl)azetidin-3-yl)oxy)-5-fluoropyridin-2-yl)-1-methyl-1H-pyrazole-4-carbonitrile] | 0.1 to 100
Cc1cnn(C)c1-c1nc(OC2CN(C(=O)N3N=CC[C@H]3c3cc(F)cc(F)c3)C2)sc1Cl [Compound 149, (S)-(3-((5-chloro-4-(1,4-dimethyl-1H-pyrazol-5-yl)thiazol-2-yl)oxy)azetidin-1-yl)(5-(3,5-difluorophenyl)-4,5-dihydro-1H-pyrazol-1-yl)methanone] | 0.1 to 100
Cc1cnn(C)c1-c1nc(OC2CN(C(=O)N3N=CCC3c3cc(F)cc(F)c3)C2)c(F)cc1F (centres unmarked) [Compound 158, (5-(3,5-difluorophenyl)-4,5-dihydro-1H-pyrazol-1-yl)(3-((6-(1,4-dimethyl-1H-pyrazol-5-yl)-3,5-difluoropyridin-2-yl)oxy)azetidin-1-yl)methanone] | 0.1 to 100
Cc1nscc1-c1cc(OC2CN(C(=O)N3N=CC[C@H]3c3cc(F)cc(C#N)c3)C2)c(F)cn1 [Compound 17, (S)-3-fluoro-5-(1-(3-((5-fluoro-2-(3-methylisothiazol-4-yl)pyridin-4-yl)oxy)azetidine-1-carbonyl)-4,5-dihydro-1H-pyrazol-5-yl)benzonitrile] | 0.1 to 100
Cc1cnn(C)c1-c1cc(OC2CN(C(=O)N3N=CC[C@H]3c3cc(F)cc(C#N)c3)C2)c(F)cn1 [Compound 11, (S)-3-(1-(3-((2-(1,4-dimethyl-1H-pyrazol-5-yl)-5-fluoropyridin-4-yl)oxy)azetidine-1-carbonyl)-4,5-dihydro-1H-pyrazol-5-yl)-5-fluorobenzonitrile] | 0.1 to 100
Cc1cc(F)cc([C@@H]2CC=NN2C(=O)N2CC(Oc3cc(-n4nc(C)c(C(N)=O)c4C)ncc3F)C2)c1 [Compound 135, (S)-1-(5-fluoro-4-((1-(5-(3-fluoro-5-methylphenyl)-4,5-dihydro-1H-pyrazole-1-carbonyl)azetidin-3-yl)oxy)pyridin-2-yl)-3,5-dimethyl-1H-pyrazole-4-carboxamide] | 0.1 to 100
Cc1n[nH]c(C)c1-c1cc(OC2CN(C(=O)N3N=CC[C@H]3c3cc(F)cc(C#N)c3)C2)c(F)cn1 [Compound 19, (S)-3-(1-(3-((2-(3,5-dimethyl-1H-pyrazol-4-yl)-5-fluoropyridin-4-yl)oxy)azetidine-1-carbonyl)-4,5-dihydro-1H-pyrazol-5-yl)-5-fluorobenzonitrile] | 0.1 to 100
Cc1cnn(C)c1-c1ccc(F)c(OC2CN(C(=O)N3N=CC[C@H]3c3cc(F)cc(C#N)c3)C2)c1 [Compound 60, (S)-3-(1-(3-(5-(1,4-dimethyl-1H-pyrazol-5-yl)-2-fluorophenoxy)azetidine-1-carbonyl)-4,5-dihydro-1H-pyrazol-5-yl)-5-fluorobenzonitrile] | 0.1 to 100
Cc1ncsc1-c1cc(OC2CN(C(=O)N3N=CC[C@H]3c3cc(F)cc(C#N)c3)C2)c(F)cn1 [Compound 18, (S)-3-fluoro-5-(1-(3-((5-fluoro-2-(4-methylthiazol-5-yl)pyridin-4-yl)oxy)azetidine-1-carbonyl)-4,5-dihydro-1H-pyrazol-5-yl)benzonitrile] | 0.1 to 100
Cc1cnc(C2CC=NN2C(=O)N2CC(Oc3nc(-c4ccnn4C)c(F)cc3F)C2)s1 (centres unmarked) [Compound 139, (3-((3,5-difluoro-6-(1-methyl-1H-pyrazol-5-yl)pyridin-2-yl)oxy)azetidin-1-yl)(5-(5-methylthiazol-2-yl)-4,5-dihydro-1H-pyrazol-1-yl)methanone] | 0.1 to 100
